The source of these data is ChEMBL document CHEMBL1135763, “Discovery of aminothiazole inhibitors of cyclin-dependent kinase 2: synthesis, X-ray crystallographic analysis, and biological activities” (J Med Chem, 2002).

As usually defined, the IC50 is the concentration that inhibits the measured activity by half. Low values mean greater potency, high ones weaker potency.

The target of assay [1] is Cyclin-dependent kinase 4/cyclin D1 (Homo sapiens, UniProt P11802). Put plainly: Inhibitory activity against baculovirus expressed Cyclin dependent kinase 4-cyclinD1. It is filed as protein-complex assay.
Assay [2] addresses Cyclin-dependent kinase 1/cyclin B (Homo sapiens, UniProt P06493). Put plainly: Inhibitory activity against baculovirus expressed Cyclin dependent kinase 1-cyclinB. The format is protein-complex assay.
For another assay, the target named is Protein kinase C (PKC). Put plainly: Inhibition of Protein kinase C. The format is protein assay.
Assay [3] concerns the target Cyclin-dependent kinase 2/cyclin E (Homo sapiens, UniProt P24941). Put plainly: Inhibitory activity against baculovirus expressed Cyclin dependent kinase 2-cyclinE. It is filed as protein-complex assay.
In assay [4] the target is cAMP-dependent protein kinase (PKA) (Homo sapiens, UniProt P22694+P17612+P22612). Put plainly: Inhibition of Protein kinase A (PKA). It is filed as protein assay.

Sequence of Cyclin-dependent kinase 4/cyclin D1 (P11802 whole entry): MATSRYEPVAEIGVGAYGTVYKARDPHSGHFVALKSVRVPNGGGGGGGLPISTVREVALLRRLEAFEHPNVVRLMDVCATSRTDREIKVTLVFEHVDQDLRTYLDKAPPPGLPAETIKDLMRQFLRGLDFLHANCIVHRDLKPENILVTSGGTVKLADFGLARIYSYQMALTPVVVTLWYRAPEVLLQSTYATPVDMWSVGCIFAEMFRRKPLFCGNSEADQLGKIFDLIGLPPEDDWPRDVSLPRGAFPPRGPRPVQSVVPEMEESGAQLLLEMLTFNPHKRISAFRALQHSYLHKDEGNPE
Sequence of Cyclin-dependent kinase 4/cyclin D1 (P24385 whole entry, further chain): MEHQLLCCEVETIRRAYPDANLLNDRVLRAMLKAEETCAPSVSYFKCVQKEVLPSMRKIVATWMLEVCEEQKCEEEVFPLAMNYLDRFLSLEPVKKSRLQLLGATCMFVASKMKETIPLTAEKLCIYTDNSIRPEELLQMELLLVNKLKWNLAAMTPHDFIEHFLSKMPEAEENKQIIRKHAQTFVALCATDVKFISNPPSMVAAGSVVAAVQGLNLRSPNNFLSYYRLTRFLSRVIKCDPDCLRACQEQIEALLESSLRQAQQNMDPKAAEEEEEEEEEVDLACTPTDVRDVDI

Turning to `CCOC(=O)CSc1cnc(NC(C)=O)s1`, the IC50 is 23 µM in assay [1]; 1.87 µM in assay [2]; above 50 µM on Protein kinase C (PKC); 0.17 µM in assay [3]; above 50 µM in assay [4].
